From patent EP4786487A1, “PEPTIDE” (Peptidream Inc, priority 2023, dated 2025)
Where two headings read alike, the source gives them in different places. Starred links: 1 amine or outer side, 2 acyl side, 3 side chain; linkers in the order of their positions; H or OH if unused. Positions of bridges follow the written chain, without caps; N, C: chain ends. Non-standard residues stand in square brackets, D forms with d. Residues, ends and D or L forms follow the SMILES beside them. Phe(3-OCH2COOH) = N[C@@H](Cc1cccc(OCC(=O)O)c1)C(=O)O; NMePhe(4-CH2NH2) = CN[C@@H](Cc1ccc(CN)cc1)C(=O)O; Phe(4-COOH) = N[C@@H](Cc1ccc(C(=O)O)cc1)C(=O)O; Bip = N[C@@H](Cc1ccc(-c2ccccc2)cc1)C(=O)O; Gly(N(CH2)3COOH) = O=C(O)CCCNCC(=O)O; NMeY = CN[C@@H](Cc1ccc(O)cc1)C(=O)O; X1 = CCCCCCC[C@H](N[*:1])C(=O)[*:2]; NMeF = CN[C@@H](Cc1ccccc1)C(=O)O; d(hCys) = N[C@H](CCS)C(=O)O; hCys = N[C@@H](CCS)C(=O)O; NMeA = CN[C@@H](C)C(=O)O; dNMeA = CN[C@H](C)C(=O)O; Sar = CNCC(=O)O

What was measured:
Type in all cases: cell-based
GDF-11 [1] = biological target: T1, GDF-11 (Homo sapiens, UniProt O95390); experiment: Reporter gene assay for myostatin signaling in HepG2 cell line, Evaluation Procedure (1), GDF-11 inhibition; details: read-out: IC50 (Luciferase) GDF-11 HepG2
T1 construct: purchased R&D systems 1958-GD-G8/CF
T1 sequence (O95390 299-407): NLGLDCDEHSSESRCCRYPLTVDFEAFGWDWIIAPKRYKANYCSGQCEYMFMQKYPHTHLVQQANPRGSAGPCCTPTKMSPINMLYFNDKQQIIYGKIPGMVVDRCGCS
Experimental: (§1) In this Example, the in vitro myostatin inhibitory effects of the peptides synthesized in Examples 1 and 2 were evaluated using a reporter gene assay for myostatin signaling in HepG2 cell line.
(§2) HepG2 cell line (HB-8065, ATCC) cultured in EMEM (055-08975, WAKO Industries) containing 10% FBS (10270106, Gibco) and 50 µg/mL gentamicin (11980-14, Nacalai Tesque) was seeded in 96-well plates (167008, Thermo) at 2.0 × 10^4 cells/well and incubated in a CO2 incubator (37°C, 5% CO2) for 24 hours. The pGL3(CAGA)12-luc plasmid, namely a pGL3 vector (E1751, Promega) having a luciferase gene inserted downstream of a promoter sequence with 12 CAGA repeats attached, was added to the wells along with a transfection reagent (X-treamGENE9 DNA Transfection Reagent, 6365809001, Roche) at a concentration of 0.04 µg/well. The cell line was cultured in a CO2 incubator (37°C, 5% CO2) for 24 hours for transfection. The medium was discarded and replaced with EMEM containing 50 µL/well of 0.1% bovine serum albumin (A7030, Sigma) and 50 µg/mL gentamicin, and incubated in a CO2 incubator (37°C, 5% CO2) for 2 hours.
(§3) Myostatin (788-G8/C, R&D systems) or GDF-11 (1958-GD-G8/CF, R&D systems) was added so that the final concentrations were those listed in Table 5.
(§4) A 4-fold dilution series of various peptides synthesized in Examples 1 and 2 was added to achieve 0.006-100 nmol/L (myostatin inhibition) and 0.12-2000 nmol/L (GDF-11 inhibition). At this time, blank wells, in which neither myostatin, GDF-11, nor each peptide was added, were also prepared and incubated in a CO2 incubator (37°C, 5% CO2) for 20 to 24 hours.
(§5) The medium containing the cells was removed, and a mixture containing PBS (14190144, Thermo) and a chromogenic substrate One-Glo Luciferase Assay System (E6120, Promega) at a ratio of 1:1 was added to each well at 100 µL/well. This was stirred with a plate shaker for 5 min and transferred to a 384-well plate (3570, Corning) at a volume of 20 µL/well.
(§6) The plate was centrifuged at 1,000 × g for 1 min and the luminescence signal (700 nm luminescence) was measured using a plate reader (Envision 2104, PerkinElmer). Based on the measured values, IC50 values of the peptides were calculated using software (Prism 9, GraphPad). […]
(§7) In this Example, the in vitro myostatin inhibitory effects of the peptides synthesized in Examples 10 and 11 were evaluated according to the Evaluation Procedure (1) in Example 3.

Myostatin [2] = biological target: T2, Myostatin (Homo sapiens, UniProt O14793); experiment: Reporter gene assay for myostatin signaling in HepG2 cell line, Evaluation Procedure (1), myostatin inhibition; details: read-out: IC50 (Luciferase) Myostatin HepG2
T2 construct: active myostatin (also called mature myostatin) is a homodimer consisting of two C-terminal growth factor domains; purchased R&D systems 788-G8/CF
T2 sequence (O14793 267-375): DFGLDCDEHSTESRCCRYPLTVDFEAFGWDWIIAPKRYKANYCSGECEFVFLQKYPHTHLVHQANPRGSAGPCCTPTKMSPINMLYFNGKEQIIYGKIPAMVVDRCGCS
Experimental: as §1, §2, §3, §4, §5, §6, §7

GDF-11 [3] = biological target: T1, GDF-11; experiment: HepG2 reporter gene assay, Evaluation Procedure (2): 2-concentrations assay, GDF-11 inhibition; details: for inhibition: read-out: inhibition rate (GDF-11 inhibition assay)
Method in brief: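 HepG2 cells carrying the transfected pGL3(CAGA)12-luc reporter, a pGL3 vector with luciferase placed downstream of 12 CAGA repeats, were stimulated with GDF-11 at a final 10 ng/mL together with test peptide. Blank wells received no GDF-11 and no peptide. Plates were incubated 20 to 24 hours at 37°C with 5% CO2. Luminescence from One-Glo substrate was read to calculate percent inhibition.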

Myostatin [4] = biological target: T2, Myostatin; experiment: HepG2 reporter gene assay, Evaluation Procedure (2): 2-concentrations assay, myostatin inhibition; details: HepG2
Method in brief: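 Myostatin inhibition was measured in a luciferase reporter assay using HepG2 cells transfected with a pGL3 vector containing 12 CAGA repeats upstream of luciferase. After 20 to 24 hours with 10 ng/mL myostatin, cells received One-Glo:PBS (1:1) at 100 µL/well, were shaken for 5 min, and 20 µL/well was moved to 384-well plates and read on an Envision 2104.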

[5] = HepG2, first GDF-11 column of Table 7-3/7-4, GDF-11 10 ng/mL, peptide at the lower of the 2 concentrations
[6] = HepG2, second GDF-11 column of Table 7-3/7-4, GDF-11 10 ng/mL, peptide at the higher of the 2 concentrations
[7] = Table 7-3/7-4, myostatin 10 ng/mL, peptide at the higher of the 2 concentrations, read-out: inhibition rate (myostatin inhibition assay)
[8] = Table 7-3/7-4, myostatin 10 ng/mL, peptide at the lower of the 2 concentrations, read-out: inhibition rate (myostatin inhibition assay)

Row | inhibition (GDF-11 [3]; [5]) | inhibition (GDF-11 [3]; [6]) | inhibition at 0.1 µM (Myostatin [4]; [7]) | inhibition at 0.03 µM (Myostatin [4]; [8]) | SMILES | further results
1 |  |  |  |  | CC[C@H](C)[C@@H]1NC(=O)[C@H](Cc2ccc(O)cc2)N(C)C(=O)[C@H](Cc2ccc(O)cc2)NC(=O)[C@H](Cc2ccc(-c3ccccc3)cc2)NC(=O)[C@H](C)NC(=O)CN(CCCC(=O)O)C(=O)CSC[C@H](C(=O)O)NC(=O)[C@H](Cc2ccccc2)N(C)C(=O)[C@H](C)N(C)C(=O)[C@H](CC(C)C)NC(=O)[C@H](Cc2ccccc2)N(C)C(=O)[C@H](CCCNC(=N)N)NC(=O)[C@H](Cc2ccc(C(=O)O)cc2)NC(=O)[C@H](Cc2cccc(OCC(=O)O)c2)NC(=O)[C@@H](C)N(C)C1=O [Myostatin_99_v118] ({CH2CO}-[Gly(N(CH2)3COOH)]A[Bip]Y[NMeY]I[dNMeA][Phe(3-OCH2COOH)][Phe(4-COOH)]R[NMeF]L[NMeA][NMeF][dC]-OH; thioether N-15) | IC50 (GDF-11 [1]; Method A: GDF-11 10 ng/mL): 4030 nM; IC50 (Myostatin [2]; Method A: Myostatin 10 ng/mL): 23.1 nM
2 |  |  |  |  | CCCCCCC[C@@H]1NC(=O)[C@@H]2Cc3ccc(cc3)CNC(=O)CC[C@H](NC(=O)CSC[C@H](C(=O)O)NC(=O)[C@H](Cc3ccccc3)N(C)C(=O)[C@H](C)N(C)C1=O)C(=O)N[C@@H](C)C(=O)N[C@@H](Cc1c[nH]c3ccccc13)C(=O)N[C@@H](Cc1ccc(O)cc1)C(=O)N(C)[C@@H](Cc1ccccc1)C(=O)N[C@@H]([C@@H](C)CC)C(=O)N(C)[C@@H](C)C(=O)N[C@@H](Cc1cccc(OCC(=O)O)c1)C(=O)N[C@@H](Cc1ccc(C(=O)O)cc1)C(=O)N[C@@H](CCCNC(=N)N)C(=O)N2C [Myostatin_99_v358] ({CH2CO}-EAWY[NMeF]I[NMeA][Phe(3-OCH2COOH)][Phe(4-COOH)]R[NMePhe(4-CH2NH2)][X1][NMeA][NMeF][dC]-OH; lactam 1-11; thioether N-15) | IC50 (GDF-11 [1]; Method D: GDF-11 1.5 ng/mL): 52.8 nM; IC50 (Myostatin [2]; Method D: Myostatin 1.5 ng/mL): 0.17 nM
3 | 0% | 0% | 100% | 100% | CCCCCCC[C@@H]1NC(=O)[C@H](Cc2ccccc2)N(C)C(=O)[C@H](CCCNC(=N)N)NC(=O)[C@H](Cc2ccc(C(=O)O)cc2)NC(=O)[C@H](Cc2cccc(OCC(=O)O)c2)NC(=O)[C@H](C)N(C)C(=O)[C@H]([C@@H](C)CC)NC(=O)[C@H](Cc2ccccc2)N(C)C(=O)[C@H](Cc2ccc(O)cc2)NC(=O)[C@H](Cc2c[nH]c3ccccc23)NC(=O)[C@H](C)NC(=O)CN(CCCC(=O)O)C(=O)CSCC[C@H](C(=O)O)NC(=O)[C@H](Cc2ccccc2)N(C)C(=O)[C@H](C)N(C)C1=O [Myostatin_99_v441] ({CH2CO}-[Gly(N(CH2)3COOH)]AWY[NMeF]I[NMeA][Phe(3-OCH2COOH)][Phe(4-COOH)]R[NMeF][X1][NMeA][NMeF][d(hCys)]-OH; thioether N-15) | 
4 | 0% | 0% | 100% | 100% | CCCCCCC[C@@H]1NC(=O)[C@H](Cc2ccccc2)N(C)C(=O)[C@H](CCCNC(=N)N)NC(=O)[C@H](Cc2ccc(C(=O)O)cc2)NC(=O)[C@H](Cc2cccc(OCC(=O)O)c2)NC(=O)[C@H](C)N(C)C(=O)[C@H]([C@@H](C)CC)NC(=O)[C@H](Cc2ccccc2)N(C)C(=O)[C@H](Cc2ccc(O)cc2)NC(=O)[C@H](Cc2c[nH]c3ccccc23)NC(=O)[C@H](C)NC(=O)CN(CCCC(=O)O)C(=O)CSCC[C@@H](C(=O)O)NC(=O)[C@H](Cc2ccccc2)N(C)C(=O)[C@H](C)N(C)C1=O [Myostatin_99_v442] ({CH2CO}-[Gly(N(CH2)3COOH)]AWY[NMeF]I[NMeA][Phe(3-OCH2COOH)][Phe(4-COOH)]R[NMeF][X1][NMeA][NMeF][hCys]-OH; thioether N-15) | 
5 | 0% | 0% | 100% | 100% | CCCCCCC[C@@H]1NC(=O)[C@H](Cc2ccccc2)N(C)C(=O)[C@H](CCCNC(=N)N)NC(=O)[C@H](Cc2ccc(C(=O)O)cc2)NC(=O)[C@H](Cc2cccc(OCC(=O)O)c2)NC(=O)[C@H](C)N(C)C(=O)[C@H]([C@@H](C)CC)NC(=O)[C@H](Cc2ccccc2)N(C)C(=O)[C@H](Cc2ccc(O)cc2)NC(=O)[C@H](Cc2c[nH]c3ccccc23)NC(=O)[C@H](C)NC(=O)CN(CCCC(=O)O)C(=O)[C@H](C)N(C)C(=O)[C@@H](C)NC(=O)[C@H](Cc2ccccc2)N(C)C(=O)[C@H](C)N(C)C1=O [Myostatin_99_v450] (cyclo(AWY[NMeF]I[NMeA][Phe(3-OCH2COOH)][Phe(4-COOH)]R[NMeF][X1][NMeA][NMeF][dA][NMeA][Gly(N(CH2)3COOH)])) | 
6 | 1% | 0% | 100% | 99% | CCCCCCC[C@@H]1NC(=O)[C@H](Cc2ccccc2)N(C)C(=O)[C@H](CCCNC(=N)N)NC(=O)[C@H](Cc2ccc(C(=O)O)cc2)NC(=O)[C@H](Cc2cccc(OCC(=O)O)c2)NC(=O)[C@H](C)N(C)C(=O)[C@H]([C@@H](C)CC)NC(=O)[C@H](Cc2ccccc2)N(C)C(=O)[C@H](Cc2ccc(O)cc2)NC(=O)[C@H](Cc2c[nH]c3ccccc23)NC(=O)[C@H](C)NC(=O)[C@H](C)N(C)C(=O)[C@H](C)N(C)C(=O)CNC(=O)[C@H](Cc2ccccc2)N(C)C(=O)[C@H](C)N(C)C1=O [Myostatin_99_v455] (cyclo(AWY[NMeF]I[NMeA][Phe(3-OCH2COOH)][Phe(4-COOH)]R[NMeF][X1][NMeA][NMeF]G[NMeA][NMeA])) | 
7 |  |  |  |  | CC[C@H](C)[C@@H]1NC(=O)[C@H](Cc2ccccc2)N(C)C(=O)[C@H](Cc2ccc(O)cc2)NC(=O)[C@H](Cc2c[nH]c3ccccc23)NC(=O)[C@H](CCCNC(=N)N)NC(=O)[C@H](C)NC(=O)CSC[C@@H](C(N)=O)NC(=O)[C@H](Cc2ccccc2)N(C)C(=O)[C@H](C)N(C)C(=O)[C@H](CC(C)C)NC(=O)[C@H](Cc2ccccc2)N(C)C(=O)[C@H](CCCNC(=N)N)NC(=O)[C@H](Cc2ccc(O)cc2)NC(=O)[C@H](Cc2ccc(O)cc2)NC(=O)CN(C)C1=O [Myostatin_Myostatin_000099] ({CH2CO}-ARWY[NMeF]I[Sar]YYR[NMeF]L[NMeA][NMeF]C-NH2; thioether N-15) | inhibition at 0.03 µM (GDF-11 [3]; HepG2, peptide 30nM, GDF-11 10 ng/mL, read-out: GDF11 Inhibition 30nM): 0%; inhibition at 0.1 µM (GDF-11 [3]; HepG2, peptide 100nM, GDF-11 10 ng/mL, read-out: GDF11 Inhibition 100nM): 19%; inhibition at 0.03 µM (Myostatin [4]; peptide 30nM, Myostatin 10 ng/mL, read-out: Myostatin Inhibition 30nM): 56%; inhibition at 0.1 µM (Myostatin [4]; peptide 100nM, Myostatin 10 ng/mL, read-out: Myostatin Inhibition 100nM): 87%
